According to PubChem BioAssay (NCI):
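96-well plates; 48 h exposure; 5 concentrations. Endpoints by linear interpolation between flanking doses. Not reached: highest tested concentration assigned. TGI denotes the concentration required for complete inhibition of growth.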

What was measured:
Experiment in all cases: NCI tumour cell line growth inhibition, 48 h
[1] = tested on: A498 renal
[2] = tested on: COLO 205 colon
[3] = tested on: DLD-1 colon
[4] = tested on: IGROV1 ovarian
[5] = tested on: KM12 colon
[6] = tested on: LOX IMVI melanoma
[7] = tested on: MCF7 breast
[8] = tested on: NCI/ADR-RES ovarian
[9] = tested on: OVCAR-5 ovarian
[10] = tested on: P388 leukemia
[11] = tested on: P388/ADR leukemia
[12] = tested on: RPMI-8226 leukemia
[13] = tested on: SK-MEL-5 melanoma
[14] = tested on: SN12K1 renal
[15] = tested on: UO-31 renal
[16] = tested on: XF 498 CNS
[17] = tested on: ACHN renal
[18] = tested on: M14 melanoma
[19] = tested on: SR leukemia
[20] = tested on: TK-10 renal

| Structure (SMILES) | TGI [1] [µM] | TGI [2] [µM] | TGI [3] [µM] | TGI [4] [µM] | TGI [5] [µM] | TGI [6] [µM] | TGI [7] [µM] | TGI [8] [µM] | TGI [9] [µM] | TGI [10] [µM] | TGI [11] [µM] | TGI [12] [µM] | TGI [13] [µM] | TGI [14] [µM] | TGI [15] [µM] | TGI [16] [µM] | TGI [17] [µM] | TGI [18] [µM] | TGI [19] [µM] | TGI [20] [µM] |
| --- | --- | --- | --- | --- | --- | --- | --- | --- | --- | --- | --- | --- | --- | --- | --- | --- | --- | --- | --- | --- |
| NC(CSCSCC(N)C(=O)O)C(=O)O (stereo unspecified) | > 225 | > 225 | > 225 | > 225 | > 104 | > 225 | > 225 | > 104 | > 225 | > 71.2 | > 225 | > 225 | > 225 | > 225 | > 225 | > 225 |  |  |  |  |
| CC(C)(C)CI | > 100 | 47 | > 100 | > 100 | 64.6 | 33.4 |  |  | > 100 |  |  |  | 30.9 |  | > 10 | 34.9 | 58.5 | 71.3 | 76.7 | > 100 |
| COc1ccc(-c2c3c(nc4nc(SCC(=O)c5ccc(Br)cc5)nc(N)c24)CCCC3)cc1OC |  | > 100 |  | > 100 | > 100 | > 100 | > 100 | > 100 | > 100 |  |  | > 100 | 21.7 |  | > 100 |  | > 100 | > 100 | > 100 | > 100 |
| O=C1CCC2COc3ccc(O)c1c32 (stereo unspecified) | > 100 | > 100 |  | > 100 |  | > 100 |  |  |  |  |  | > 100 | > 100 |  |  | > 100 | > 100 | > 100 |  | > 100 |
| O=C1OC(c2ccccc2Br)=N/C1=C/c1ccccc1 | > 100 |  |  | > 100 | 34 | 38.8 | > 100 |  | > 100 |  |  | > 100 | > 100 |  | > 100 |  | 77.5 | 41.1 | > 100 | > 100 |
| COc1nc(NC2OC(CO)C(O)C(O)C2O)c(N)c(=O)[nH]1 (stereo unspecified) | > 100 | > 100 | > 100 | > 100 | > 100 | > 100 | > 100 | > 100 | > 100 | > 100 | > 100 | > 100 | > 100 | > 100 | > 100 | > 100 |  |  |  |  |
| O=c1oc2ccccc2n1P(=O)(Oc1ccc(Cl)cc1)n1c(=O)oc2ccccc21 | > 100 | > 100 | > 100 | > 100 | > 100 | > 100 |  |  | > 100 |  |  |  | > 100 |  | > 100 |  | > 100 |  | > 100 | > 100 |
| CC1OC(CO)(n2cnc3c(N)ncnc32)C(O)C1O (stereo unspecified) | > 100 | > 100 | > 100 | > 100 | > 100 | > 100 | > 100 | > 100 | > 100 | > 100 | > 100 | > 100 | > 100 | > 100 | > 100 | > 100 |  |  |  |  |
